Measured values taken from patent US20250387359A1, “COMPOUNDS AND METHODS FOR THE TREATMENT OF PARASITIC INFECTIONS” (THE BOARD OF TRUSTEES OF THE UNIVERSITY OF ILLINOIS, priority 2019, published 2025).
Entries after “also recorded” stand apart in the source; their conditions may differ.

Columns and labels:
[1] = test system: C. parvum; assay: Histopathology of distal small intestine of C. parvum infected mice; type: in vivo, Cryptosporidium parvum; details: lower small intestine, H&E, NSC158011 400 mg/kg, NSC10447 250, 500 or 1000 mg/kg, paromomycin 100 mg/kg
Description: In vivo testing of the anti-Cryptosporidium effect of CpLDH inhibitors. Gamma interferon knockout mice (B6.129S7-Ifng), 8 weeks of age, were purchased from Charles River, USA. The care and use of the mice was done following the guidelines of protocol number 17024 approved by the University of Illinois at Urbana-Champaign, USA. The animals were allowed to acclimatize for 1 week before experiments commenced. Stock solutions of recombinant CpLDH inhibitors reconstituted in DMSO were diluted in sterile distilled water to reduce the final amount of DMSO in the solution to less than 1% (v/v) before administering them to mice. Prior to testing the anti-Cryptosporidium effect of the inhibitors in mice, the tolerability of each inhibitor was tested by oral gavage using varying dosages (100-2000 mg/kg body weight) of each inhibitor in groups of mice (three mice for each dose) daily for 7 days. Mice were observed daily for signs of toxicity including changes from normal physical activity, respiration, body temperature, feeding, posture, fur condition or occurrence of death. […] The subsequent dosages of NSC10447 used in the mice infection assays were 250, 500 and 1000 mg/kg mouse body weight, while the NSC158011 dosages used were 100, 200 and 400 mg/kg mouse body weight. Mice were allocated to groups as follows: “Infected plus inhibitor treatment”; “Infected minus inhibitor treatment”; “Uninfected minus inhibitor treatment” and “Infected plus paromomycin treatment”. Each group contained at least three mice. Each mouse in the infection groups received 5,000 C. parvum oocysts (resuspended in 50 μl of PBS) by oral gavage. Mice were housed individually in cages lined with sterile gauze as bedding. […] An equivalent volume of PBS containing a cocktail of penicillin (100 units/ml), streptomycin (100 μg/ml), chloramphenicol (34 μg/ml) and amphotericin (0.25 μg/ml) was added to the fecal samples and stored at 4° C. until use for quantification of C. parvum genomic DNA load. […]

[2] = Tolerability in mice; type: in vivo; details: B6.129S7-Ifng (gamma interferon knockout), mouse, in vivo, po, 7 days
Description: In vivo testing of the anti-Cryptosporidium effect of CpLDH inhibitors. Gamma interferon knockout mice (B6.129S7-Ifng), 8 weeks of age, were purchased from Charles River, USA. The care and use of the mice was done following the guidelines of protocol number 17024 approved by the University of Illinois at Urbana-Champaign, USA. The animals were allowed to acclimatize for 1 week before experiments commenced. Stock solutions of recombinant CpLDH inhibitors reconstituted in DMSO were diluted in sterile distilled water to reduce the final amount of DMSO in the solution to less than 1% (v/v) before administering them to mice. Prior to testing the anti-Cryptosporidium effect of the inhibitors in mice, the tolerability of each inhibitor was tested by oral gavage using varying dosages (100-2000 mg/kg body weight) of each inhibitor in groups of mice (three mice for each dose) daily for 7 days. Mice were observed daily for signs of toxicity including changes from normal physical activity, respiration, body temperature, feeding, posture, fur condition or occurrence of death. […] An equivalent volume of PBS containing a cocktail of penicillin (100 units/ml), streptomycin (100 μg/ml), chloramphenicol (34 μg/ml) and amphotericin (0.25 μg/ml) was added to the fecal samples and stored at 4° C. until use for quantification of C. parvum genomic DNA load. […]

[3] = molecular target: recombinant CpLDH protein (Cryptosporidium parvum, UniProt Q9GT92, F198L/K295E/R251K); assay: biochemical; type: biochemical
Description: Biochemical assays. The coding sequence of CpLDH was cloned from cDNA prepared from the AUCP-1 isolate of C. parvum, and the His-tagged CpLDH recombinant protein expressed in Escherichia coli, and purified in native form essentially as previously described (Int. J. Parasitol. 2017; 47(13), 867-874). Briefly, cDNA was prepared from total RNA extracted from the AUCP-1 isolate of C. parvum, and the coding sequencing of CpLDH (Genebank accession number AF274310.1) was PCR-amplified from the cDNA using a primer pair with a XhoI restriction site and a BamHI site. The PCR amplicon was cloned at the XhoI/BamHI site of the pET15b expression vector in-frame with the hexahistidine (His-tag) at the N-terminal and sequenced to confirm identity. The recombinant expression vector was transformed into protein expression E. coli BL21-CodonPlus-DE3-RIL (Stratagene). Transformed E. coli was cultured at 37° C. in Luria broth medium (supplemented with 100 μg/ml ampicillin and 34 μg/ml chloramphenicol) to an A600 of 0.8 followed by addition of 1 mM isopropyl-β-d-thiogalactopyranoside to induce protein expression. The expression E. coli was harvested and lysed under native conditions by sonicating in lysis buffer (50 mM NaH2PO4, 300 mM NaCl, 10 mM Imidazole, pH 8.0) containing a 1× EDTA-free protease inhibitor cocktail, 600 units benzonase and 30 kU lysozyme (EMD Millipore). The lysate was clarified by centrifugation and the His-tagged recombinant protein purified under native conditions by nickel-affinity chromatography according to the manufacturer's instructions (Novagen). The wash buffer used contained 50 mM NaH2PO4, 300 mM NaCl and 20 mM Imidazole, pH 8.0, while the elution buffer was composed of 50 mM NaH2PO4, 300 mM NaCl, 250 mM Imidazole, pH 8.0. The eluate was dialyzed using a buffer containing 5 mM Hepes-KOH (pH 7.8) and 0.5 mM DTT. The purity of the recombinant protein was determined by SDS/PAGE, and the concentration measured using a Qubit 3.0 fluorometer (Life technologies). […] On the other hand, the catalytic activity of CpLDH recombinant protein for the oxidation of lactate to pyruvate was determined by measuring the change in optical density of a 100 μl reaction mixture containing 100 mM lactate, 1 mM NAD^+, 100 mM Tris, pH 9.2, with varying concentrations of CpLDH recombinant protein at 25° C. […] In all assays, reaction mixtures without recombinant CpLDH protein were included as negative controls. All assays were performed in triplicate and repeated at least thrice. The change in optical density was measured every 15 seconds for a total of 2 minutes using a Spectra Max 384 Plus plate reader (Molecular Devices) at a wavelength of 340 nm.
Screening compounds for inhibitory activity against CpLDH. The chemical compounds were obtained from the National Cancer Institute/Developmental Therapeutics Program Open Chemical Repository. They consisted of a diverse set of compounds (n=27) reported previously (Int J Parasitol Drugs Drug Resist. 2016; 6(1), 44-53), and a Mechanistic Set IV compounds (n=800). The compounds were reconstituted in dimethyl sulfoxide (DMSO) as stock solutions. Just before use, aliquots of the stock solutions were diluted in sterile distilled water to generate working solutions, such that the final amount of DMSO added to the reaction mixtures was less than 1% (V/V). The compounds were tested for their inhibitory effect against the enzymatic activity of recombinant His-tagged CpLDH for catalyzing the reduction of pyruvate to lactate. […] Control reactions without recombinant CpLDH protein were included. Reactions were performed in triplicate and repeated at least thrice. The change in optical density was measured every 15 seconds for a total of 2 minutes using a Spectra Max 384 Plus plate reader (Molecular Devices) at a wavelength of 340 nm.

Chain of recombinant CpLDH protein (Q9GT92 whole entry F198L/K295E/R251K): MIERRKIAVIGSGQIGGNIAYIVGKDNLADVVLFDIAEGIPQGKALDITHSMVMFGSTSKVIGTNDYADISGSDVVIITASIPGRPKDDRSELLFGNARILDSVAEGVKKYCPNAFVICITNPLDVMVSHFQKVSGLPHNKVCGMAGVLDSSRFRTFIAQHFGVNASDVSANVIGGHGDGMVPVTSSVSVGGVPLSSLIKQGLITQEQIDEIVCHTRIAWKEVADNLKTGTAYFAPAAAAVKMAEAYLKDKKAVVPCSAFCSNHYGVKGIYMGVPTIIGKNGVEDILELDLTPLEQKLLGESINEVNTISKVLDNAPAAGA

O=C1c2ccccc2C(=O)c2c(O)c(O)cc(O)c21 [NSC10447]
histopathology of intestinal epithelium and villi [1]: prevented villous atrophy and maintained the integrity of the intestinal mucosa; also recorded: intact intestinal epithelium with prominent villi
highest tolerable dose (no toxicity signs) [2]: 1000 mg/kg
IC50 [3]: 46.3 µM
effect on catalytic activity of recombinant CpLDH ([3]; 20 μM compound, 10 mM pyruvate, 1 mM NADH): significant (P<0.05) inhibitory effect
